Assays:
Assay type in all cases: cell-based
ΔF508-CFTR [1] = molecular target: T1, ΔF508-CFTR (Homo sapiens, UniProt P13569, DEL508-508); assay: Corrector assay, YFP fluorescence plate reader iodide influx in ΔF508-CFTR expressing FRT cells
T1 construct: expressed in transfected cells; host or cells: Fischer rat thyroid (FRT) epithelial cells, stably transfected
Description: Screening procedures. Screening of compounds for activity was carried out using a Beckman Coulter platform equipped with FLUOstar fluorescence plate readers (Optima; BMG Labtech) with dual syringe pumps and 500±10 nm excitation and 535±15 nm emission filters (Chroma Corp.). For the corrector assay, FRT cells were grown at 37° C./5% CO2 for 18-24 h and then incubated for 18-24 h with 100 μL of medium containing test compounds (25 μM final concentration). At the time of the assay, cells were washed with PBS and then incubated for 10 min with PBS containing forskolin (20 μM) and genistein (50 μM). For the potentiator assay, FRT cells were grown at 37° C./5% CO2 for 18-24 h and then for 18-24 h at 27° C. At the time of the assay, cells were washed with PBS and then incubated for 10 min with PBS (50 μL) containing forskolin (20 μM) and test compound (0-25 μM final concentration). For both the corrector and potentiator assays, each well was assayed individually for I^− influx by recording fluorescence continuously (200 ms per point) for 2 s (baseline) and then for 12 s after rapid addition of 165 μL PBS in which 137 mM Cl^− was replaced by I^−. Initial I^− influx rate was computed by fitting the final 11.5 seconds of the data to an exponential for extrapolation of initial slope, which was normalized for background-subtracted initial fluorescence. All compound plates contained negative controls and positive controls (10 μM Corr-4a for corrector assay; 50 μM genistein for potentiator assay).
Screening of about 110,000 small molecules was done to identify new ΔF508-CFTR corrector scaffolds having high correction efficiency and/or having independent potentiator activity. […] FRT cells co-expressing human ΔF508-CFTR and a halide-sensing YFP were incubated with test compounds at 37° C. (corrector assay) or 27° C. (potentiator assay). ΔF508-CFTR function was assayed in a plate reader from YFP fluorescence quenching in response to iodide addition in the presence of forskolin (20 μM) plus genistein (50 μM) for corrector assay, or forskolin (20 μM) alone for potentiator assay. As shown in FIG. 1A (left), primary screening for corrector activity was done using a cell-based fluorescence assay of iodide influx in which FRT cells expressing ΔF508-CFTR and an iodide-sensitive YFP were incubated with test compounds at 10 μM for 18-24 h prior to assay. Iodide influx was measured by addition of extracellular iodide in the presence of a potentiator (50 μM genistein) and cAMP agonist (20 μM forskolin). Compound efficacy and potency (from concentration-dependence studies) in the corrector assay were compared to reference bithiazole Corr-4a (10 μM) and to low-temperature rescued cells. Active compounds were counter-screened for potentiator activity (FIG. 1A, right) in which iodide influx was measured in the ΔF508-CFTR expressing FRT cells after low-temperature rescue and in the presence of 20 μM forskolin.
Screening procedures. Plate reader activity assay was carried out using a Beckman Coulter platform containing a robotic arm, CO2 incubator containing microplate carousel, plate-washer, liquid handling work station, bar code reader, de-lidding station, plate sealer, and FLUOstar fluorescence plate readers (Optima; BMG LABTECH Gmbh), equipped with dual syringe pumps and 500±10 nm excitation and 535±15 nm emission filters (Chroma Corp.). For the corrector assay, ΔF508-CFTR-expressing FRT cells were grown at 37° C. (90% humidity; 5% CO2) for 18-24 h and then incubated for 18-24 h with 100 μL of medium containing test compounds (0-25 μM final concentration). At the time of the assay, cells were washed with PBS and then incubated for 10 min with PBS containing forskolin (20 μM) and genistein (50 μM). For the potentiator assay, FRT cells were grown at 37° C. (90% humidity; 5% CO2) for 18-24 h and then for 18-24 h at 27° C. […]

ΔF508-CFTR [2] = molecular target: T1, ΔF508-CFTR; assay: Short-circuit current (apical membrane chloride current) corrector assay in ΔF508-CFTR expressing FRT cells; details: 10 μM, 18-24 h incubation
Description: Short-circuit current measurements. ΔF508-CFTR-expressing FRT cells were cultured on Snapwell inserts for 7-9 days. For corrector testing, test compounds were incubated with FRT cells for 18-24 h at 37° C. prior to measurements. For potentiator testing, the FRT cells were incubated for 18-24 h at 27° C. prior to measurements. The basolateral solution contained 130 mM NaCl, 2.7 mM KCl, 1.5 mM KH2PO4, 1 mM CaCl2, 0.5 mM MgCl2, 10 mM glucose, and 10 mM Na-HEPES (pH 7.3). In the apical bathing solution, 65 mM NaCl was replaced by Na gluconate, and CaCl2 was increased to 2 mM. Solutions were bubbled with air and maintained at 37° C. The basolateral membrane was permeabilized with 250 μg/ml amphotericin B. Hemichambers were connected to a DVC-1000 voltage clamp (World Precision Instruments Inc.) via Ag/AgCl electrodes and 1 M KCl agar bridges for recording of short-circuit current.
Short-circuit current was measured as a definitive electrophysiological assay to verify Compound 22 corrector action. Apical membrane chloride current was measured in ΔF508-CFTR expressing FRT cells after basolateral membrane permeabilization and in the presence of a transepithelial chloride gradient (apical, 65 mM; basolateral, 130 mM). In FIG. 3C, incubation with Corr-4a (5 μM) is shown as reference (right). Forskolin (20 μM), genistein (50 μM) and CFTRinh-172 (10 μM) were added where indicated. […] FIG. 3D summarizes Compound 22 concentration dependence data from short-circuit current studies. […]
Short-circuit current was measured in an electrophysiology assay to verify corrector activity. Apical membrane chloride current was measured in ΔF508-CFTR expressing FRT cells after basolateral membrane permeabilization and in the presence of a transepithelial chloride gradient. […] To assay potentiator activity apical membrane chloride current was measured after low-temperature rescue, in response to CP-3 addition. CP-3 concentration-dependent increases in apical membrane current were measured in the presence of 5 μM forskolin. […]

ΔF508-CFTR [3] = molecular target: T1, ΔF508-CFTR; assay: CFTR immunoblot of ΔF508-CFTR expressing FRT cells; details: 24 h at 37° C.
Description: CFTR Immunoblot. DF508-CFTR expressing FRT cells grown on 6-well plates were treated with Corr-4a ([…]), Compound 22 […] or negative control at 37° C. for 24 h. After treatment, cells were washed with PBS and lysed in 20 mM Hepes (pH 7), 150 mM NaCl, 1 mM EGTA and 1% Igepal containing Complete Protease Inhibitor Cocktail (Roche). After pre-clearing, lysates were subjected to SDS-PAGE and analyzed by immunoblot. Proteins were immunodetected using a mouse monoclonal anti-CFTR antibody (M3A7, Millipore) followed by HRP-conjugated anti-mouse IgG, and visualized by chemiluminescence (ECL Plus, Amersham).
The action of Compound 22 as corrector of defective ΔF508-CFTR cellular processing was verified by CFTR immunoblot analysis (FIG. 4C). Wildtype CFTR was detected as a strong band at 170 kDa (band C), corresponding to complex glycosylated CFTR. […] Band B, which corresponds to core-glycosylated ΔF508-CFTR, was also seen.

T1 sequence (P13569 with tags, fused parts or gaps DEL508-508): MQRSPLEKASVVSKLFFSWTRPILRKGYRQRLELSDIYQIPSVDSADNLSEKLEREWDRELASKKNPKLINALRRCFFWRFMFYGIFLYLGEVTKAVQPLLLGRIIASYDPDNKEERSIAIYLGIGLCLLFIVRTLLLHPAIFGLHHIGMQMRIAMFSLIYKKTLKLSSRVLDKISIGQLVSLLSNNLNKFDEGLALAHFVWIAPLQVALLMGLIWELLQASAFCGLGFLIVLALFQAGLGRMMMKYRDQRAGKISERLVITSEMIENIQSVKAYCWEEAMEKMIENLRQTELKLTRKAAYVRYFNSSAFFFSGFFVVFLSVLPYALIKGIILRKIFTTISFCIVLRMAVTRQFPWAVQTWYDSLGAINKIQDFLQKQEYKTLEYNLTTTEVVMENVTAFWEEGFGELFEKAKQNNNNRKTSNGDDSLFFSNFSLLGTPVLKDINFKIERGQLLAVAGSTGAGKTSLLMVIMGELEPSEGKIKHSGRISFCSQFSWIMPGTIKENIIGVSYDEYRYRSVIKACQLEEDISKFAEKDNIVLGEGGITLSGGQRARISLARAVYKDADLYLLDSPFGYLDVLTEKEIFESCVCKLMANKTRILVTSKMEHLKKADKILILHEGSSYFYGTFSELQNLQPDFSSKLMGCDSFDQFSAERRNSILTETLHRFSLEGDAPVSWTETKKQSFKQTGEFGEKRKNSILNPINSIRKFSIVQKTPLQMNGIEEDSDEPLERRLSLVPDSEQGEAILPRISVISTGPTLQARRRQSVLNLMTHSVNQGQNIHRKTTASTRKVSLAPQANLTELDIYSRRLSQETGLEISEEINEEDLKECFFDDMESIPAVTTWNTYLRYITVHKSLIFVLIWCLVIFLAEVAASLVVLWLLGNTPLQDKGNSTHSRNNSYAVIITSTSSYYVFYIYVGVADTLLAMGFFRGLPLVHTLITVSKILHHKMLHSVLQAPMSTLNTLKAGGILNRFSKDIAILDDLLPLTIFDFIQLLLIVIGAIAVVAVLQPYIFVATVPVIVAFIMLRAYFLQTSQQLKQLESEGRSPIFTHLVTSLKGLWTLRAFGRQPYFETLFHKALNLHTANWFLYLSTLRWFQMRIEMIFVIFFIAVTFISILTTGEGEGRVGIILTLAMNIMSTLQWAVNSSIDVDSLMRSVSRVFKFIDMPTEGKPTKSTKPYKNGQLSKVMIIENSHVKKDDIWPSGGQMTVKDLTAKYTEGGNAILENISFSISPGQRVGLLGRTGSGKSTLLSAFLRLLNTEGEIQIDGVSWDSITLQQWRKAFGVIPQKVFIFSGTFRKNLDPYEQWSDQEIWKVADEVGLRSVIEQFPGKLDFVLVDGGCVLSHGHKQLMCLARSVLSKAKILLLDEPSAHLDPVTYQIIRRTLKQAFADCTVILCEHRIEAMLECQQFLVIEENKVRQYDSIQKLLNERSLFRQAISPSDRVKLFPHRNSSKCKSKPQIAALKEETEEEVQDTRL

| SMILES | corrector and potentiator activities, in words (ΔF508-CFTR [1]; concentration-dependence in corrector and potentiator I− influx assays (FIG. 2, FIG. 7)) | apical membrane current (corrector) (ΔF508-CFTR [2]) | iodide influx after incubation at 27° C. (ΔF508-CFTR [1]; Compound 22 (20 µM) or Corr-4a (10 µM), 24 h, 27° C., vs low-temperature rescue control) | iodide influx after incubation at 37° C. (ΔF508-CFTR [1]; Compound 22 (20 µM) or Corr-4a (10 µM), 24 h, 37° C., with genistein) | complex glycosylated CFTR (band C) in immunoblot (ΔF508-CFTR [3]) |
| --- | --- | --- | --- | --- | --- |
| COc1ccc(C(=O)NCCNc2nc3cc(C)cc(C)c3cc2C#N)cc1 [Compound CP3] | both corrector and potentiator activities | increase in apical membrane current |  |  |  |
| COc1ccc(Cl)cc1Nc1nc(-c2sc(NC(=O)c3ccccc3)nc2C)cs1 [Corr-4a, reference compound] |  |  | substantially increased iodide influx | increased iodide influx | band C was visualized |

— US9073863B2, “Cyanoquinoline compounds having activity in correcting mutant-CFTR processing and increasing ion transport and uses thereof” (The Regents of the University of California, priority 2011, dated 2015)
